Five compounds from patent publication US6420348B1, “Pectic polysaccharides purified from Angelica gigas nakai and purification method and use as immunostimulating agent thereof” (Korea Institute of Science and Technology, priority 1997, dated 2002) can be followed below.

For one data set, the system named is B16F10 cancer cells. Put plainly: direct cytotoxicity on cancer cells. It counts as cell-based. The following applies: for survival number of treated cells as ratio to non-treated cells: 2 days. How it is done: Whether the anticancer effect of angelan came from specific mediation by cytotoxic T cells or from nonspecific mediation by macrophages and natural killer cells, was proven as follows. B16F10 cancer cells were treated with angelan and adriamicin at a dose of 0.3 to 30 μg/ml. After incubation for 2 days, the number of the survived cells was countered. The survival number of the treated cells was expressed as a ratio compared with the number of the non-treated cells.

The subject of the next data set is B16F10 melanoma. As to the kind of experiment: host resistance model to syngeneic tumors. In kind it is in vivo, BDF1 mice. The conditions noted are these: for Viability: relative to non-treated mice; for Survival Animals (10 in total): survived 60 days. The protocol: The host resistance model to syngeneic tumors was prepared by the intraperitoneal transplantation of B16F10 melanoma to BDF1 mice. After transplantation, angelan was administered at a dose of 100 mg/kg/day while adriamicin was administered at a dose of 0.1 to 0.3 mg/kg. The survival rates of the treated mice was based on the viability of non-treated mice, and the number of the animals which survived for 60 days after the implantation, was counted.

In data set [1] the test system is B cell-depleted cell group (T cells). As to the kind of experiment: mitogenicity comparison, 3H-thymidine incorporation. It counts as cell-based, mice. The following applies: 5 μg/ml. The source says:
(§1) In this example, the action mode of angelan was compared with those of other lymphocyte mitogens in three different lymphocyte groups. Lipopolysaccharide (LPS) was employed to induce the proliferation of B cell while phytohemagglutinin (PHA) and concanavalin A (Con A) were used as T cell mitogens. As a comitogen, that is, in order to induce both T-cells and B-cells to proliferate, pokeweed mitogen (PWM) was used.
(§2) Angelan was given to three different cell groups: total cell group including T- and B-cells, T cell-depleted cell group, and B cell-depleted cell group. Each cell groups were treated with angelan or one of LPS, PWM, Con A and PHA. After incubation, lymphocyte proliferation was measured by the incorporation of 3H-thymidine into the cellular DNA.
A general note: Uptake of a labelled nucleoside into DNA is a usual measure of proliferation.

Data set [2] relates to T cell-depleted cell group (B cells). The data set is described as above. It counts as cell-based, mice. The conditions noted are these: for Proliferation B cells: 5 μg/ml; for mitogenicity (in words): B cell-enriched group.
Source text: as §1, §2

Data set [3] has as its system total cell group including T- and B-cells. The data set is described as above. In kind it is cell-based, mice. The conditions noted are these: 5 μg/ml.
Source text: as §1, §2

In the case of `COc1cccc2c1C(=O)c1c(O)c3c(c(O)c1C2=O)C[C@@](O)(C(=O)CO)C[C@@H]3O[C@H]1C[C@H](N)[C@H](O)[C@H](C)O1` [Adriamicin], in the data set on B16F10 cancer cells, the “cytotoxicity on cancer cells (in words)” value is on record as “showed cytotoxicity on cancer cells”. Further, the “survival number of treated cells as ratio to non-treated cells” value was determined as 56 in the data set with B16F10 cancer cells (0.3 μg/ml); 29 in the data set with B16F10 cancer cells (1 μg/ml); 9 in the data set on B16F10 cancer cells (3 μg/ml); 0 in the data set on B16F10 cancer cells (10 μg/ml); 0 with B16F10 cancer cells (30 μg/ml). For the same compound, the Viability in the data set with B16F10 melanoma (adriamicin 0.1 mg/kg) is listed as 195%; in the data set on B16F10 melanoma (adriamicin 0.3 mg/kg) it was greater than 240%. Besides, the “Survival Animals (10 in total)” value turned out to be 0 in the data set with B16F10 melanoma (adriamicin 0.1 mg/kg) and 2 with B16F10 melanoma (adriamicin 0.3 mg/kg).

With Lipopolysaccharide [LPS], in data set [1], the “Proliferation T cells” value is listed as 869 cpm/200,000 cells. In data set [2], the “Proliferation B cells” value is reported as 11550 cpm/200,000 cells and the “mitogenicity (in words)” value is on record as “had an effect”. In addition, the “Proliferation B/T cells” value in data set [3] is on record as 11665 cpm/200,000 cells.

As for concanavalin A [Con A], in data set [1], the “Proliferation T cells” value is listed as 3929 cpm/200,000 cells. Also, the “Proliferation B cells” value in data set [2] is recorded as 6566 cpm/200,000 cells. Also, the “Proliferation B/T cells” value in data set [3] is reported as 6014 cpm/200,000 cells.

As to phytohemagglutinin [PHA], the “Proliferation T cells” value in data set [1] is given as 3127 cpm/200,000 cells. For the same compound, the “Proliferation B cells” value in data set [2] was 446 cpm/200,000 cells. Further, the “Proliferation B/T cells” value in data set [3] is 1049 cpm/200,000 cells.

As to pokeweed mitogen [PWM], the “Proliferation T cells” value in data set [1] was 12171 cpm/200,000 cells. In data set [2], the “Proliferation B cells” value is recorded as 358 cpm/200,000 cells and the “mitogenicity (in words)” value was “had an effect”. For the same compound, the “Proliferation B/T cells” value in data set [3] is on record as 10212 cpm/200,000 cells.
